The values that follow come from patent US20150112425A1, “DELIVERY OF HIGHLY LIPOPHILIC AGENTS VIA MEDICAL DEVICES” (Abbott Laboratories, priority 2005, published 2015).

The nature of series [1]: Shake-flask octanol/water partition coefficient study of DES drugs (FIG. 20). The format is physicochemical. On the procedure:
“Solubility” is based on a standard measure used in medicinal chemistry. The octanol-water partition coefficient (P) is the ratio of distribution of a compound in a mixture of 1-octanol and H2O. Log P is the base 10 logarithm of the partition coefficient.
In the measurement of the partition coefficient (octanol/water), preliminary studies were conducted to determine the optimum drug concentration for each test, and the appropriate time for establishing the partition equilibrium. All experiments were carried out by two different analysts and on multiple drug lots.

Series [2] in a line: Transfer coefficient (P divided by S) of DES drugs (FIG. 21). Format: physicochemical. The note with it: P divided by equilibrium aqueous solubility S (μg/ml).
Series [3] in a line: Pig model, tissue and blood concentrations of zotarolimus eluted from ZoMaxx stents (FIG. 25). Format: in vivo.
For series [4] the following is noted: representative summary; cited from earlier work.
Series [5] is described as follows: Shake-flask aqueous solubility study of DES drugs (FIG. 20).

Regarding `CO[C@H]1C[C@@H]2CC[C@@H](C)[C@@](O)(O2)C(=O)C(=O)N2CCCC[C@H]2C(=O)O[C@H]([C@H](C)C[C@@H]2CC[C@H](n3cnnn3)[C@H](OC)C2)CC(=O)[C@H](C)/C=C(\C)[C@@H](O)[C@@H](OC)C(=O)[C@H](C)C[C@H](C)/C=C/C=C/C=C/1C` [Zotarolimus], the “Lipophilicity rank among DES drugs tested” value in series [1] was “the most lipophilic of all DES drugs tested”. Further, the “Transfer coefficient, rank order” value in series [2] was “zotarolimus>>paclitaxel>>rapamycin>dexamethasone”. For the same compound, the “Concentration in arterial tissue adjacent to stent placement” value in series [3] (all periods out to 28 days) is listed as “substantial concentrations”. Moreover, the “Concentration in distal, unstented and subjacent myocardium and unstented and distal coronary arteries” value in series [3] (throughout 28 days) is on record as “therapeutically significant concentrations”. Also, the “LogP Values” in series [4] is given as more than 4.5. Moreover, the “Aqueous solubility, rank order” value in series [5] (amorphous DES drugs, dexamethasone crystalline) is “increasing order: paclitaxel, zotarolimus, rapamycin, and dexamethasone (crystalline)”. Moreover, the “Solubility in water compared with amorphous rapamycin” value in series [5] (shake-flask) was “much less soluble in water than amorphous rapamycin”.
